According to US20050265954A1, “Novel association, a method of its preparation and its uses” (ADAMED, Sp. z.o.o., priority 2004, published 2005):

How the values were obtained:
[1] = Light absorption spectra and complex formation in phosphate buffer; type: physicochemical; details: phosphate buffer 0.05M, pH 8.5, chlorin p6 1.9·10^−5M
Excerpt: The absorption spectra of the above-obtained associations of polyvinylpyrrolidone with chlorin p6 in the phosphate buffer (0.05M, pH 8.5) are shown on FIG. 1 for the following chlorin p6/polyvinylpyrrolidone ratios (by weight): (1) 1:1; (2) 1:15; (3) 1:40; (4) 1:200; and (5) 1:1000. The concentration of chlorin p6 was 1.9·10^−5M in all investigated solutions.
The chlorin p6-polyvinylpyrrolidone complex has an absorption maximum in the long-wave region of visible light, and this maximum is shifted towards longer wavelengths (664 nm) compared to free chlorin p6, which has an absorption maximum at 656 nm. Therefore, the use of the association according to the invention as a photosensitizer allows for deeper penetration of radiation into biological tissues, which allows for treating solid tumors and/or deeply located lesions.
Formation of the complex of polyvinylpyrrolidone with chlorin p6 results in a series of changes in the absorption spectrum. […]
FIG. 2 presents the experimentally obtained percent of red shift of the absorption maximum of the complex in relation to the content of polyvinylpyrrolidone. […] The spectra were recorded for a series of the solutions of the complex in the phosphate buffer (pH 8.5) at the chlorin p6 concentration of 1.9·10^−5M.

Pliss' lymphosarcoma = test: Tumor necrosis after photodynamic therapy, Pliss' lymphosarcoma; type: in vivo; details: rats, photosensitizer 2.5 mg/kg, laser 660 nm, 50 J/cm^2
Procedure: The studies were performed on white not-inbred laboratory rats having subcutaneously implanted tumors (Pliss' lymphosarcoma). The dose of the administered photosensitizer was 2.5 mg/kg. The necrosis area was estimated based on the functional condition of the tumor's vascular system following laser irradiation (660 nm) at the radiation dose of 50 J/cm^2, when accumulation of the photosensitizer was the highest.
After 24 hours since the photodynamic therapy, the animals were intravenously given a solution of Evans blue in physiologic saline at the dose of 1.0 ml/100 g of body weight.

[2] = test system: Walker-256 carcinosarcoma; test: Inhibition of neoplasm's growth, Walker-256 carcinosarcoma; type: in vivo, rats; details: 2.5 mg/kg intraperitoneally, 200 J/cm^2
Procedure: The use of the association according to the invention allows to achieve a high level of the tumor growth inhibition. In order to confirm this effect, the studies were performed using white rats with implanted neoplasms (Walker-256 carcinosarcoma). A solution of the photosensitizer was administered intraperitoneally at doses of 2.5 mg/kg and the tumor was […] at the radiation dose of 200 J/cm^2. The observation was continued for 21 days following the therapy. FIG. 3 and Table 7 show the dynamics of changes of the absolute rate of the tumor growth, resulting from the use of the association according to the invention (1:15) as well as free chlorin p6. The control group consisted of untreated animals.

[3] = reference standard; cited from earlier work

C=Cc1c(C)c2cc3nc(c(C(=O)O)c4[nH]c(cc5nc(cc1[nH]2)C(C)=C5CC)c(C)c4C(=O)O)[C@@H](CCC(=O)O)[C@@H]3C (relative stereo) [chlorin p6, 13-carboxy-17-[2-carboxyethyl]-15-carboxy-17,18-trans-dihydro-3-vinyl-8-ethyl-2,7,12,18-tetramethylporphyrin]
Absorption maximum in the long-wave region of visible light [1]: 656 nm
Depth of necrosis (Pliss' lymphosarcoma): 7 mm
Necrosis area (Pliss' lymphosarcoma): 46.3%
Neoplasm's growth ([2]; 3 days after photodynamic therapy): 0%
Neoplasm's growth ([2]; 7 days after photodynamic therapy): 0%
Neoplasm's growth ([2]; 10 days after photodynamic therapy): 3%
Neoplasm's growth ([2]; 14 days after photodynamic therapy): 8%
Neoplasm's growth ([2]; 21 days after photodynamic therapy): 12%
Resumption of tumor growth following the therapy ([2]; observation 21 days): the tumor growth resumes after 10 days

O=S(=O)([O-])c1ccc(-c2c3nc(c(-c4ccc(S(=O)(=O)[O-])cc4)c4ccc([nH]4)c(-c4ccc(S(=O)(=O)[O-])cc4)c4nc(c(-c5ccc(S(=O)(=O)[O-])cc5)c5ccc2[nH]5)C=C4)C=C3)cc1.[Na+].[Na+].[Na+].[Na+] [TSFP, tetrasodium phenylporphyrintetrasulfonate]
Quantum yield of the singlet-state oxygen (φλ) of the reference solution [3]: 0.7
